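96-well plates; 48 h exposure; 5 concentrations. Endpoints by linear interpolation between flanking doses. Not reached: highest tested concentration assigned. The concentration for 50% growth inhibition is given as GI50. TGI: total growth inhibition.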
Experiments:
Assay in all cases: NCI-60 cell line screen, 48 h
786-0 renal = system: 786-0 renal
A498 renal = system: A498 renal
A549 NSCLC = system: A549 NSCLC
ACHN renal = system: ACHN renal
BT-549 breast = system: BT-549 breast
CAKI-1 renal = system: CAKI-1 renal
CCRF-CEM leukemia = system: CCRF-CEM leukemia
COLO 205 colon = system: COLO 205 colon
DU-145 prostate = system: DU-145 prostate
EKVX NSCLC = system: EKVX NSCLC
HCC-2998 colon = system: HCC-2998 colon
HCT-116 colon = system: HCT-116 colon
HCT-15 colon = system: HCT-15 colon
HL-60(TB) leukemia = system: HL-60(TB) leukemia
HOP-62 NSCLC = system: HOP-62 NSCLC
HOP-92 NSCLC = system: HOP-92 NSCLC
HS 578T breast = system: HS 578T breast
HT29 colon = system: HT29 colon
IGROV1 ovarian = system: IGROV1 ovarian
K-562 leukemia = system: K-562 leukemia
KM12 colon = system: KM12 colon
LOX IMVI melanoma = system: LOX IMVI melanoma
M14 melanoma = system: M14 melanoma
MALME-3M melanoma = system: MALME-3M melanoma
MCF7 breast = system: MCF7 breast
MDA-MB-231 breast = system: MDA-MB-231 breast
MDA-MB-435 = system: MDA-MB-435
MDA-MB-468 breast = system: MDA-MB-468 breast
MOLT-4 leukemia = system: MOLT-4 leukemia
NCI-H226 lung = system: NCI-H226 lung
NCI-H23 lung = system: NCI-H23 lung
NCI-H460 lung = system: NCI-H460 lung
NCI-H522 lung = system: NCI-H522 lung
NCI/ADR-RES ovarian = system: NCI/ADR-RES ovarian
OVCAR-3 ovarian = system: OVCAR-3 ovarian
OVCAR-4 ovarian = system: OVCAR-4 ovarian
OVCAR-5 ovarian = system: OVCAR-5 ovarian
OVCAR-8 ovarian = system: OVCAR-8 ovarian
PC-3 prostate = system: PC-3 prostate
RPMI-8226 leukemia = system: RPMI-8226 leukemia
RXF 393 renal = system: RXF 393 renal
SF-268 CNS = system: SF-268 CNS
SF-295 CNS = system: SF-295 CNS
SF-539 CNS = system: SF-539 CNS
SK-MEL-2 melanoma = system: SK-MEL-2 melanoma
SK-MEL-28 melanoma = system: SK-MEL-28 melanoma
SK-MEL-5 melanoma = system: SK-MEL-5 melanoma
SK-OV-3 ovarian = system: SK-OV-3 ovarian
SN12C renal = system: SN12C renal
SNB-19 CNS = system: SNB-19 CNS
SNB-75 CNS = system: SNB-75 CNS
SR leukemia = system: SR leukemia
SW-620 colon = system: SW-620 colon
T-47D breast = system: T-47D breast
TK-10 renal = system: TK-10 renal
U251 CNS = system: U251 CNS
UACC-257 melanoma = system: UACC-257 melanoma
UACC-62 melanoma = system: UACC-62 melanoma
UO-31 renal = system: UO-31 renal

Question: With O=C(Nc1ccc(Cl)c(C(F)(F)F)c1)c1cncc(C#Cc2cnc3ccc(N4CCOCC4)nn23)c1 as the molecule, how does the GI50 (786-0 renal) read?
Answer: 2.68 µM

Question: And the TGI (786-0 renal)?
Answer: 11.8 µM

Question: And the GI50 (A498 renal)?
Answer: 1.98 µM

Question: What about the TGI (A498 renal) of the same molecule?
Answer: 6.82 µM

Question: What about the GI50 (A549 NSCLC) of the same molecule?
Answer: 2.15 µM

Question: And the TGI (A549 NSCLC)?
Answer: > 81 µM

Question: And the GI50 (ACHN renal)?
Answer: 1.54 µM

Question: And the TGI (ACHN renal)?
Answer: 10.3 µM

Question: And the GI50 (BT-549 breast)?
Answer: 1.43 µM

Question: What about the TGI (BT-549 breast) of the same molecule?
Answer: 6.62 µM

Question: What about the GI50 (CAKI-1 renal) of the same molecule?
Answer: 2.07 µM

Question: And the TGI (CAKI-1 renal)?
Answer: 11.1 µM

Question: What about the GI50 (CCRF-CEM leukemia) of the same molecule?
Answer: 2.58 µM

Question: And the TGI (CCRF-CEM leukemia)?
Answer: > 81 µM

Question: And the GI50 (COLO 205 colon)?
Answer: 1.17 µM

Question: What about the TGI (COLO 205 colon) of the same molecule?
Answer: 9.92 µM

Question: What about the GI50 (DU-145 prostate) of the same molecule?
Answer: 2.86 µM

Question: And the TGI (DU-145 prostate)?
Answer: > 81 µM

Question: What about the GI50 (EKVX NSCLC) of the same molecule?
Answer: 2.12 µM

Question: And the TGI (EKVX NSCLC)?
Answer: 21.2 µM

Question: And the GI50 (HCC-2998 colon)?
Answer: 2.06 µM

Question: And the TGI (HCC-2998 colon)?
Answer: 15.2 µM

Question: And the GI50 (HCT-116 colon)?
Answer: 0.356 µM

Question: And the TGI (HCT-116 colon)?
Answer: 3.11 µM

Question: What about the GI50 (HCT-15 colon) of the same molecule?
Answer: 2.55 µM

Question: What about the TGI (HCT-15 colon) of the same molecule?
Answer: > 81 µM

Question: What about the GI50 (HL-60(TB) leukemia) of the same molecule?
Answer: 0.256 µM

Question: What about the TGI (HL-60(TB) leukemia) of the same molecule?
Answer: 3.87 µM

Question: And the GI50 (HOP-62 NSCLC)?
Answer: 0.912 µM

Question: What about the TGI (HOP-62 NSCLC) of the same molecule?
Answer: 9.9 µM

Question: And the GI50 (HOP-92 NSCLC)?
Answer: 0.255 µM

Question: And the TGI (HOP-92 NSCLC)?
Answer: 1.55 µM

Question: And the GI50 (HS 578T breast)?
Answer: 0.809 µM

Question: And the TGI (HS 578T breast)?
Answer: 4.15 µM

Question: And the GI50 (HT29 colon)?
Answer: 1 µM

Question: And the TGI (HT29 colon)?
Answer: 11.1 µM

Question: And the GI50 (IGROV1 ovarian)?
Answer: 0.579 µM

Question: What about the TGI (IGROV1 ovarian) of the same molecule?
Answer: 4.96 µM

Question: What about the GI50 (K-562 leukemia) of the same molecule?
Answer: 0.728 µM

Question: And the TGI (K-562 leukemia)?
Answer: > 81 µM

Question: What about the GI50 (KM12 colon) of the same molecule?
Answer: 0.0081 µM

Question: And the TGI (KM12 colon)?
Answer: 46.4 µM

Question: And the GI50 (LOX IMVI melanoma)?
Answer: 0.812 µM

Question: And the TGI (LOX IMVI melanoma)?
Answer: 4.35 µM

Question: And the GI50 (M14 melanoma)?
Answer: 0.717 µM

Question: What about the TGI (M14 melanoma) of the same molecule?
Answer: 3.01 µM

Question: And the GI50 (MALME-3M melanoma)?
Answer: 0.854 µM

Question: And the TGI (MALME-3M melanoma)?
Answer: 5.62 µM

Question: And the GI50 (MCF7 breast)?
Answer: 1.91 µM

Question: And the TGI (MCF7 breast)?
Answer: 15.4 µM

Question: What about the GI50 (MDA-MB-231 breast) of the same molecule?
Answer: 0.321 µM

Question: What about the TGI (MDA-MB-231 breast) of the same molecule?
Answer: 3.1 µM

Question: What about the GI50 (MDA-MB-435) of the same molecule?
Answer: 1.44 µM

Question: And the TGI (MDA-MB-435)?
Answer: > 81 µM

Question: And the GI50 (MDA-MB-468 breast)?
Answer: 2.54 µM

Question: And the TGI (MDA-MB-468 breast)?
Answer: 14.2 µM

Question: And the GI50 (MOLT-4 leukemia)?
Answer: 1.59 µM

Question: What about the TGI (MOLT-4 leukemia) of the same molecule?
Answer: 4.77 µM

Question: And the GI50 (NCI-H226 lung)?
Answer: 0.361 µM

Question: And the TGI (NCI-H226 lung)?
Answer: 12.5 µM

Question: And the GI50 (NCI-H23 lung)?
Answer: 0.842 µM

Question: And the TGI (NCI-H23 lung)?
Answer: 5.33 µM

Question: What about the GI50 (NCI-H460 lung) of the same molecule?
Answer: 2.67 µM

Question: What about the TGI (NCI-H460 lung) of the same molecule?
Answer: 19.1 µM

Question: And the GI50 (NCI-H522 lung)?
Answer: 1.6 µM

Question: What about the TGI (NCI-H522 lung) of the same molecule?
Answer: 7.49 µM

Question: And the GI50 (NCI/ADR-RES ovarian)?
Answer: 2.45 µM

Question: And the TGI (NCI/ADR-RES ovarian)?
Answer: 15 µM

Question: What about the GI50 (OVCAR-3 ovarian) of the same molecule?
Answer: 3.93 µM

Question: What about the TGI (OVCAR-3 ovarian) of the same molecule?
Answer: > 81 µM

Question: What about the GI50 (OVCAR-4 ovarian) of the same molecule?
Answer: 3.8 µM

Question: And the TGI (OVCAR-4 ovarian)?
Answer: > 81 µM

Question: What about the GI50 (OVCAR-5 ovarian) of the same molecule?
Answer: 0.883 µM

Question: And the TGI (OVCAR-5 ovarian)?
Answer: 18.7 µM

Question: And the GI50 (OVCAR-8 ovarian)?
Answer: 2.5 µM

Question: And the TGI (OVCAR-8 ovarian)?
Answer: 19.4 µM

Question: What about the GI50 (PC-3 prostate) of the same molecule?
Answer: 2.51 µM

Question: And the TGI (PC-3 prostate)?
Answer: 24.4 µM

Question: And the GI50 (RPMI-8226 leukemia)?
Answer: 2.42 µM

Question: What about the TGI (RPMI-8226 leukemia) of the same molecule?
Answer: > 81 µM

Question: What about the GI50 (RXF 393 renal) of the same molecule?
Answer: 0.818 µM

Question: What about the TGI (RXF 393 renal) of the same molecule?
Answer: 2.87 µM

Question: What about the GI50 (SF-268 CNS) of the same molecule?
Answer: 2.18 µM

Question: What about the TGI (SF-268 CNS) of the same molecule?
Answer: 31.5 µM

Question: What about the GI50 (SF-295 CNS) of the same molecule?
Answer: 2.65 µM

Question: And the TGI (SF-295 CNS)?
Answer: 33.9 µM

Question: And the GI50 (SF-539 CNS)?
Answer: 0.16 µM

Question: What about the TGI (SF-539 CNS) of the same molecule?
Answer: 1.64 µM

Question: And the GI50 (SK-MEL-2 melanoma)?
Answer: 1.31 µM

Question: And the TGI (SK-MEL-2 melanoma)?
Answer: 3.23 µM

Question: What about the GI50 (SK-MEL-28 melanoma) of the same molecule?
Answer: 1.24 µM

Question: And the TGI (SK-MEL-28 melanoma)?
Answer: 7.05 µM

Question: And the GI50 (SK-MEL-5 melanoma)?
Answer: 2.07 µM

Question: And the TGI (SK-MEL-5 melanoma)?
Answer: 7.78 µM

Question: What about the GI50 (SK-OV-3 ovarian) of the same molecule?
Answer: 2.59 µM

Question: What about the TGI (SK-OV-3 ovarian) of the same molecule?
Answer: 11.5 µM

Question: What about the GI50 (SN12C renal) of the same molecule?
Answer: 0.749 µM

Question: What about the TGI (SN12C renal) of the same molecule?
Answer: > 81 µM

Question: What about the GI50 (SNB-19 CNS) of the same molecule?
Answer: 2.62 µM

Question: What about the TGI (SNB-19 CNS) of the same molecule?
Answer: 7.93 µM

Question: What about the GI50 (SNB-75 CNS) of the same molecule?
Answer: 1.15 µM

Question: What about the TGI (SNB-75 CNS) of the same molecule?
Answer: 4.59 µM

Question: And the GI50 (SR leukemia)?
Answer: 1.41 µM

Question: And the TGI (SR leukemia)?
Answer: > 81 µM

Question: And the GI50 (SW-620 colon)?
Answer: 1.65 µM

Question: And the TGI (SW-620 colon)?
Answer: > 81 µM

Question: What about the GI50 (T-47D breast) of the same molecule?
Answer: 1.89 µM

Question: And the TGI (T-47D breast)?
Answer: 17.4 µM

Question: What about the GI50 (TK-10 renal) of the same molecule?
Answer: 2.06 µM

Question: What about the TGI (TK-10 renal) of the same molecule?
Answer: 30.9 µM

Question: What about the GI50 (U251 CNS) of the same molecule?
Answer: 3.62 µM

Question: And the TGI (U251 CNS)?
Answer: > 81 µM

Question: And the GI50 (UACC-257 melanoma)?
Answer: 2.12 µM

Question: And the TGI (UACC-257 melanoma)?
Answer: 21.4 µM

Question: And the GI50 (UACC-62 melanoma)?
Answer: 0.785 µM

Question: And the TGI (UACC-62 melanoma)?
Answer: 3.63 µM

Question: And the GI50 (UO-31 renal)?
Answer: 0.562 µM

Question: And the TGI (UO-31 renal)?
Answer: 6.24 µM
